pIC50: −log10 of the molar value. Values joined by “and” are separate entries in the source; they are usually repeats but may differ in a detail not shown here. Identical values can stand only once.
Tested on: DU-145 multicell spheroids with HUVEC/MSC, viability
Assay: Anticancer human tumor DU-145 cell line growth inhibition [IpAb];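 note: spheroids exposed to agents for seven days before measurement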;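 for viability, T/C: percent of DMSO vehicle control viability so 100% = untreated level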
Conditions: for viability, T/C: stronger effect = lower value
Outline: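 Combinations with ipatasertib or abemaciclib were tested on tumour spheroids holding HUVEC (25%) and MSC (15%) alongside 60% malignant cells. Top concentration was at or near clinical Cmax (10 microM if undefined), descending in half-log steps.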

[1] = curve of first compound, second compound 0.01 µM
[2] = curve of first compound, second compound 0.0316 µM
[3] = curve of first compound, second compound 0.1 µM
[4] = curve of first compound, second compound 0.316 µM
[5] = curve of first compound, second compound 1 µM
[6] = second compound 0.01 µM, first compound 0.0316 µM
[7] = second compound 0.01 µM, first compound 0.1 µM
[8] = second compound 0.01 µM, first compound 0.316 µM
[9] = second compound 0.01 µM, first compound 1 µM
[10] = second compound 0.01 µM, first compound 3.16 µM
[11] = second compound 0.01 µM, first compound 10 µM
[12] = second compound 0.0316 µM, first compound 0.0316 µM
[13] = second compound 0.0316 µM, first compound 0.1 µM
[14] = second compound 0.0316 µM, first compound 0.316 µM
[15] = second compound 0.0316 µM, first compound 1 µM
[16] = second compound 0.0316 µM, first compound 3.16 µM
[17] = second compound 0.0316 µM, first compound 10 µM
[18] = second compound 0.1 µM, first compound 0.0316 µM
[19] = second compound 0.1 µM, first compound 0.1 µM
[20] = second compound 0.1 µM, first compound 0.316 µM
[21] = second compound 0.1 µM, first compound 1 µM
[22] = second compound 0.1 µM, first compound 3.16 µM
[23] = second compound 0.1 µM, first compound 10 µM
[24] = second compound 0.316 µM, first compound 0.0316 µM
[25] = second compound 0.316 µM, first compound 0.1 µM
[26] = second compound 0.316 µM, first compound 0.316 µM
[27] = second compound 0.316 µM, first compound 1 µM
[28] = second compound 0.316 µM, first compound 3.16 µM
[29] = second compound 0.316 µM, first compound 10 µM
[30] = second compound 1 µM, first compound 0.0316 µM
[31] = second compound 1 µM, first compound 0.1 µM
[32] = second compound 1 µM, first compound 0.316 µM
[33] = second compound 1 µM, first compound 1 µM
[34] = second compound 1 µM, first compound 3.16 µM
[35] = second compound 1 µM, first compound 10 µM

For `CC1(C)CCC(CN2CCN(c3ccc(C(=O)NS(=O)(=O)c4ccc(NCC5CCOCC5)c([N+](=O)[O-])c4)c(Oc4cnc5[nH]ccc5c4)c3)CC2)=C(c2ccc(Cl)cc2)C1` + CCN1CCN(Cc2ccc(Nc3ncc(F)c(-c4cc(F)c5nc(C)n(C(C)C)c5c4)n3)nc2)CC1, the pIC50 [1] was 5.31, the pIC50 [2] was 5.39 and the pIC50 [3] was 5.38. It also gave a pIC50 [4] of 5.44, a pIC50 [5] of 5.46 and a viability, T/C [6] of 108%. The viability, T/C [7] was 104%, the viability, T/C [8] was 103% and the viability, T/C [9] was 99.8%. The viability, T/C [10] was 70.2%, the viability, T/C [11] was 16.7% and the viability, T/C [12] was 95.8%. The viability, T/C [13] was 101%, the viability, T/C [14] was 97% and the viability, T/C [15] was 90.4%. It also gave a viability, T/C [16] of 61.5%, a viability, T/C [17] of 11.1% and a viability, T/C [18] of 94.8%. For the same compound, the viability, T/C [19] was 102%, the viability, T/C [20] was 92% and the viability, T/C [21] was 78.9%. For the same compound, the viability, T/C [22] was 64.3%, the viability, T/C [23] was 13.5% and the viability, T/C [24] was 84%. The viability, T/C [25] was 88.2%, the viability, T/C [26] was 80.3% and the viability, T/C [27] was 72.5%. For the same compound, the viability, T/C [28] was 56.7%, the viability, T/C [29] was 10.8% and the viability, T/C [30] was 71.3%. The viability, T/C [31] was 72.8%, the viability, T/C [32] was 68.3% and the viability, T/C [33] was 69.5%. For the same compound, the viability, T/C [34] was 52.2% and the viability, T/C [35] was 12.3%.
With `Cc1nc(NC(=O)N2CCCC2C(N)=O)sc1-c1ccnc(C(C)(C)C(F)(F)F)c1` (stereo unspecified) the viability, T/C (compound 0.0316 µM) was 81% and 75.7%, the viability, T/C (compound 0.1 µM) was 60.6% and 54.3% and the viability, T/C (compound 0.316 µM) was 39.9% and 37.3%. For the same compound, the viability, T/C (compound 1 µM) was 29% and 31.4%, the viability, T/C (compound 3.16 µM) was 21.7% and 20.9% and the viability, T/C (compound 10 µM) was 8.51% and 8.2%. The pIC50 (curve of compound) was 6.72 and 6.80.
With `Cn1ncc(Cl)c1-c1cc(C(=O)NC(CN)Cc2cccc(F)c2)sc1Cl` (stereo unspecified) + CCN1CCN(Cc2ccc(Nc3ncc(F)c(-c4cc(F)c5nc(C)n(C(C)C)c5c4)n3)nc2)CC1 the pIC50 [1] was 6.87, the pIC50 [2] was 7.01 and the pIC50 [3] was 7.10. The pIC50 [4] was 7.10, the pIC50 [5] was 6.72 and the viability, T/C [6] was 84.7%. The viability, T/C [7] was 56.3%, the viability, T/C [8] was 30.6% and the viability, T/C [9] was 22.5%. The viability, T/C [10] was 13.7%, the viability, T/C [11] was 1.16% and the viability, T/C [12] was 74.1%. It also gave a viability, T/C [13] of 48.9%, a viability, T/C [14] of 29.6% and a viability, T/C [15] of 19.6%. For the same compound, the viability, T/C [16] was 14%, the viability, T/C [17] was 0.22% and the viability, T/C [18] was 64.4%. For the same compound, the viability, T/C [19] was 47.8%, the viability, T/C [20] was 29.4% and the viability, T/C [21] was 19%. It also gave a viability, T/C [22] of 13.4%, a viability, T/C [23] of 0.82% and a viability, T/C [24] of 60%. For the same compound, the viability, T/C [25] was 48.5%, the viability, T/C [26] was 32.8% and the viability, T/C [27] was 23.4%. It also gave a viability, T/C [28] of 16.4%, a viability, T/C [29] of 0.85% and a viability, T/C [30] of 60.3%. For the same compound, the viability, T/C [31] was 52%, the viability, T/C [32] was 50.2% and the viability, T/C [33] was 30.9%. For the same compound, the viability, T/C [34] was 25.8% and the viability, T/C [35] was 0.53%.
`CC(C)(C)c1cnc(CSc2cnc(NC(=O)C3CCNCC3)s2)o1` was tested, and the viability, T/C (compound 0.00949 µM) was 110% and 106%, the viability, T/C (compound 0.03 µM) was 105% and 110% and the viability, T/C (compound 0.0949 µM) was 71.5% and 59.3%. For the same compound, the viability, T/C (compound 0.3 µM) was 12.9% and 9.3%, the viability, T/C (compound 0.949 µM) was 7.58% and 6.45% and the viability, T/C (compound 3 µM) was 5.4% and 5.44%. For the same compound, the pIC50 (curve of compound) was 6.84 and 6.93.
`CC(=O)c1c(C)c2cnc(Nc3ccc(N4CCNCC4)cn3)nc2n(C2CCCC2)c1=O` + CCN1CCN(Cc2ccc(Nc3ncc(F)c(-c4cc(F)c5nc(C)n(C(C)C)c5c4)n3)nc2)CC1 showed a pIC50 [1] of under 6.52, a pIC50 [2] of under 6.52 and a pIC50 [3] of under 6.52. For the same compound, the pIC50 [4] was under 6.52, the pIC50 [5] was under 6.52 and the viability, T/C (second compound 0.01 µM, first compound 0.000949 µM) was 88.5%. The viability, T/C (second compound 0.01 µM, first compound 0.003 µM) was 90.5%, the viability, T/C (second compound 0.01 µM, first compound 0.00949 µM) was 87.2% and the viability, T/C (second compound 0.01 µM, first compound 0.03 µM) was 90.4%. For the same compound, the viability, T/C (second compound 0.01 µM, first compound 0.0949 µM) was 90.2%, the viability, T/C (second compound 0.01 µM, first compound 0.3 µM) was 84.8% and the viability, T/C (second compound 0.0316 µM, first compound 0.000949 µM) was 93.7%. The viability, T/C (second compound 0.0316 µM, first compound 0.003 µM) was 84.9%, the viability, T/C (second compound 0.0316 µM, first compound 0.00949 µM) was 90% and the viability, T/C (second compound 0.0316 µM, first compound 0.03 µM) was 85.4%. For the same compound, the viability, T/C (second compound 0.0316 µM, first compound 0.0949 µM) was 83.4%, the viability, T/C (second compound 0.0316 µM, first compound 0.3 µM) was 80.9% and the viability, T/C (second compound 0.1 µM, first compound 0.000949 µM) was 78.6%. For the same compound, the viability, T/C (second compound 0.1 µM, first compound 0.003 µM) was 76.9%, the viability, T/C (second compound 0.1 µM, first compound 0.00949 µM) was 77.9% and the viability, T/C (second compound 0.1 µM, first compound 0.03 µM) was 76.9%. The viability, T/C (second compound 0.1 µM, first compound 0.0949 µM) was 73.4%, the viability, T/C (second compound 0.1 µM, first compound 0.3 µM) was 76.7% and the viability, T/C (second compound 0.316 µM, first compound 0.000949 µM) was 74.5%. It also gave a viability, T/C (second compound 0.316 µM, first compound 0.003 µM) of 72%, a viability, T/C (second compound 0.316 µM, first compound 0.00949 µM) of 75.5% and a viability, T/C (second compound 0.316 µM, first compound 0.03 µM) of 75%. For the same compound, the viability, T/C (second compound 0.316 µM, first compound 0.0949 µM) was 71.3%, the viability, T/C (second compound 0.316 µM, first compound 0.3 µM) was 66.6% and the viability, T/C (second compound 1 µM, first compound 0.000949 µM) was 58.9%. For the same compound, the viability, T/C (second compound 1 µM, first compound 0.003 µM) was 61.2%, the viability, T/C (second compound 1 µM, first compound 0.00949 µM) was 61.6% and the viability, T/C (second compound 1 µM, first compound 0.03 µM) was 60.4%. The viability, T/C (second compound 1 µM, first compound 0.0949 µM) was 58% and the viability, T/C (second compound 1 µM, first compound 0.3 µM) was 60.2%.
With `COc1c(OCCCN2CCOCC2)ccc2c3n(c(=NC(=O)c4cnc(N)nc4)nc12)CCN3` + CCN1CCN(Cc2ccc(Nc3ncc(F)c(-c4cc(F)c5nc(C)n(C(C)C)c5c4)n3)nc2)CC1 the pIC50 [1] was 8.10, the pIC50 [2] was 8.21 and the pIC50 [3] was 8.31. For the same compound, the pIC50 [4] was 8.36, the pIC50 [5] was 8.31 and the viability, T/C (second compound 0.01 µM, first compound 0.00316 µM) was 79.2%. For the same compound, the viability, T/C (second compound 0.01 µM, first compound 0.01 µM) was 41.3%, the viability, T/C [6] was 28% and the viability, T/C [7] was 15.2%. For the same compound, the viability, T/C [8] was 9.78%, the viability, T/C [9] was 11.9% and the viability, T/C (second compound 0.0316 µM, first compound 0.00316 µM) was 62.9%. For the same compound, the viability, T/C (second compound 0.0316 µM, first compound 0.01 µM) was 39.9%, the viability, T/C [12] was 25.3% and the viability, T/C [13] was 13.5%. It also gave a viability, T/C [14] of 9.95%, a viability, T/C [15] of 11.3% and a viability, T/C (second compound 0.1 µM, first compound 0.00316 µM) of 57.1%. It also gave a viability, T/C (second compound 0.1 µM, first compound 0.01 µM) of 38%, a viability, T/C [18] of 23.4% and a viability, T/C [19] of 14.2%. The viability, T/C [20] was 10.9%, the viability, T/C [21] was 11.5% and the viability, T/C (second compound 0.316 µM, first compound 0.00316 µM) was 53.6%. It also gave a viability, T/C (second compound 0.316 µM, first compound 0.01 µM) of 40.4%, a viability, T/C [24] of 29.7% and a viability, T/C [25] of 17.7%. It also gave a viability, T/C [26] of 13.5%, a viability, T/C [27] of 14% and a viability, T/C (second compound 1 µM, first compound 0.00316 µM) of 54.4%. It also gave a viability, T/C (second compound 1 µM, first compound 0.01 µM) of 42.8%, a viability, T/C [30] of 32.9% and a viability, T/C [31] of 25.7%. The viability, T/C [32] was 19.7% and the viability, T/C [33] was 20.8%.
`CC(C)n1nc(-c2ccc3oc(N)nc3c2)c2c(N)ncnc21` was tested, and the viability, T/C (compound 0.000316 µM) was 78.7% and 94.3%, the viability, T/C (compound 0.001 µM) was 57.3% and 66.2% and the viability, T/C (compound 0.00316 µM) was 41.3% and 40.2%. The viability, T/C (compound 0.01 µM) was 22.9% and 21.7%, the viability, T/C (compound 0.0316 µM) was 14.4% and 12% and the viability, T/C (compound 0.1 µM) was 10.8% and 10.1%. For the same compound, the pIC50 (curve of compound) was 8.78 and 8.69.
